Measurements reported in patent publication US20070167488A1, “Novel therapeutic use” (Leo Pharma A/S, priority 2003, published 2007).

Assays:
IL-17 = IL-17 production by spleen cells of immunized, dosed mice after in vitro restimulation with PLP139-153; assay type: cell-based, mouse; settings: example 6, 50 mg/kg i.p. daily for 10 days, vs vehicle treated group
IL-6 = IL-6 production by spleen cells of immunized, dosed mice after in vitro restimulation with PLP139-153; assay type: cell-based, mouse; settings: example 6, 50 mg/kg i.p. daily for 10 days, vs vehicle treated group
IFN-γ = IFN-γ production by spleen cells of immunized, dosed mice after in vitro restimulation with PLP139-153; assay type: cell-based, mouse; settings: example 6, 50 mg/kg i.p. daily for 10 days, vs vehicle treated group
IL-2 = IL-2 production by spleen cells of immunized, dosed mice after in vitro restimulation with PLP139-153; assay type: cell-based, mouse; settings: for Level of antigen-specific IL-2 production of spleen cells: example 6, vs vehicle treated group
[1] = test system: lymphocyte adhesion to inflamed vessels; settings: G. Constantin et al., J. Immunol. 162, 1999; cited from earlier work
JAK-2 kinase = JAK-2 kinase (Mus musculus, UniProt Q62120); settings: J. J. Bright et al., J. Immunol. 162, 1999; cited from earlier work
JAK-2 kinase, sequence (Q62120 whole entry): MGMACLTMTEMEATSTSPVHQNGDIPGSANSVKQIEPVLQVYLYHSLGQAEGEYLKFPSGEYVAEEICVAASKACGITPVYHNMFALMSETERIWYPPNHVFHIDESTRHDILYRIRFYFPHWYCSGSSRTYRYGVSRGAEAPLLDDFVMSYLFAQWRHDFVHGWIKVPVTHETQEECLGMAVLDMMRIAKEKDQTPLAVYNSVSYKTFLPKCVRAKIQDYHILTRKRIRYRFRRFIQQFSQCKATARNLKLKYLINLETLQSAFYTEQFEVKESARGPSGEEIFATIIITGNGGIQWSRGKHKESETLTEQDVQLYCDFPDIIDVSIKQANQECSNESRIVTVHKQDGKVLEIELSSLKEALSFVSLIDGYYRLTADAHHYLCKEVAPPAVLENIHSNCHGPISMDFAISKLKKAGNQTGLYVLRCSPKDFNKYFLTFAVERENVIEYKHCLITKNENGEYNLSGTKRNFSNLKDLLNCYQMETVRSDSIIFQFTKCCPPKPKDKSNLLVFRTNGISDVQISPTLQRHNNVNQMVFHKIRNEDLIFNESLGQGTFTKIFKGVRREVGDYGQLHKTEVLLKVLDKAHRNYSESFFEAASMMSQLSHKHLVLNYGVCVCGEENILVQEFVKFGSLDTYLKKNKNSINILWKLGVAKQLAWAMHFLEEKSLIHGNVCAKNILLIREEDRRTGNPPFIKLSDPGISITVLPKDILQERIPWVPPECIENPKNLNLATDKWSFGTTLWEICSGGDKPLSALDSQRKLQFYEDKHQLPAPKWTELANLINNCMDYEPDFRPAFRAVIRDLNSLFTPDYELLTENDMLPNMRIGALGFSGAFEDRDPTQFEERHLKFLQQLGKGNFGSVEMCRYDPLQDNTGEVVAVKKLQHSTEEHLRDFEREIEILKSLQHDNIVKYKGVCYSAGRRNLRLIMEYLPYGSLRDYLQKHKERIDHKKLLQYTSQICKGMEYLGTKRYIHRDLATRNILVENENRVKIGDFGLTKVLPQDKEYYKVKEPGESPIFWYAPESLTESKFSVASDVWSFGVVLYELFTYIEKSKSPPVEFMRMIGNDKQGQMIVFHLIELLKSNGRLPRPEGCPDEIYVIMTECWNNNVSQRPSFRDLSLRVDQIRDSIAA

[2] = test system: EAE induced in SJL/J mice with a peptide from myelin proteolipid protein (PLP139-153); test: EAE model in SJL/J mice immunized with PLP139-153 peptide; assay type: in vivo, mouse; settings: for Inhibition of EAE compared with the suspension vehicle group (in words): SJL/J mice, PLP139-153, doses as in tables 1 and 3
[3] = test system: gene expression in inflammatory cells in the spleen; test: Oligonucleotide array of spleen cDNA from treated and control EAE mice; assay type: in vivo, mouse
Method: Control mice were given suspension vehicle as described in example 1. On day 7 after treatment, the mice (both treated and control) were sacrificed and their spleens were excised, submerged into the RNA storage solution RNA-later (Sigma-Aldrich, St. Louis, USA) and stored at −80° C. Total RNA was extracted from the mouse spleens using the TRIZOL extraction procedure according to the manufacturer's protocol followed by DNAse treatment (Invitrogen, Carlsbad, Calif., USA). The RNA quality was visualized by agarose gel electrophoresis. Ten μg total RNA was converted into purified ^33P-labelled cDNA probe according to the Atlas Pure Total RNA labelling protocol (BD Biosciences, Palo Alto, Calif., USA).
Labelled probes (10×10^6 CPM) were denatured at 95° C. for 2 minutes and cooled at 4° C. for 2 minutes prior to hybridization to oligonucleotide arrays comprising about 5.000 mouse genes in duplicate dots (Atlas Plastic Mouse 5K MicroArray, BD Biosciences, Palo Alto, Calif., USA). Arrays were hybridized for 16 h at 60° C. with rotation according to the manufacturer's protocol. After hybridization and appropriate washing steps, the arrays were imaged using phospho imager technology together with a STORM 860 scanner (Molecular Dynamics, Sunnyvale, Calif., USA). Subsequently, the images were analysed using the Atlas Image 2.7 software (BD Biosciences, Palo Alto, Calif., USA).

[4] = test system: EAE in C57BL/6 mice immunized with a peptide from myelin oligodendrocyte glycoprotein (MOG35-55); test: Second EAE model: C57BL/6JBom mice immunized with MOG35-55 peptide; assay type: in vivo, mouse
[5] = Table 3, experiment with vehicle AUC 28.6, day 0-21, 50 mg/kg i.p. daily
[6] = Table 7, 50 mg/kg p.o., suspension vehicle
[7] = listed as 3-(1H-indol-3-ylmethylene)-1,3-dihydro-indol-2-one
[8] = Exp. 1, terminated day 21, 50 mg/kg i.p. daily
[9] = Exp. 2, terminated day 21, 4 mg/kg i.p. daily
[10] = Exp. 2, terminated day 21, 10 mg/kg i.p. daily
[11] = Exp. 2, terminated day 21, 25 mg/kg i.p. daily
[12] = Exp. 2, terminated day 21, 50 mg/kg i.p. daily
[13] = Exp. 3, terminated day 28, 25 mg/kg i.p. daily
[14] = Exp. 3, terminated day 28, 50 mg/kg i.p. daily
[15] = Exp. 4, terminated day 35, 50 mg/kg i.p. daily
[16] = MOG35-55, day 0-21, 50 mg/kg i.p. daily
[17] = Exp. 1, terminated day 21, dexamethasone 0.5 mg/kg from day 0
[18] = Exp. 2, terminated day 21, dexamethasone 1 mg/kg from day 1
[19] = Exp. 3, terminated day 28, dexamethasone 1 mg/kg from day 1
[20] = Table 3, experiment with compound 57 (vehicle AUC 28.6), day 0-21, dexamethasone 1 mg/kg p.o.
[21] = Table 3, experiment with compound 110 (vehicle AUC 42.75), day 0-21, dexamethasone 1 mg/kg p.o.
[22] = MOG35-55, day 0-21, dexamethasone 1 mg/kg p.o.
[23] = Table 4, 50 mg/kg daily, treatment as in example 4

In the case of `Cc1cc(C)c(C=C2C(=O)Nc3ccccc32)[nH]1` [3-(3,5-dimethyl-1H-pyrrol-2-ylmethylene)-1,3-dihydro-indol-2-one], the “Level of antigen-specific IL-17 production of spleen cells” value (IL-17) is reported as “inhibit expression”, the “Level of antigen-specific IL-6 production of spleen cells” value (IL-6) is reported as “inhibit expression” and the “Level of antigen-specific IFN-γ production of spleen cells” value (IFN-γ) is reported as “inhibit expression”. The “Level of antigen-specific IL-2 production of spleen cells” value (IL-2; 50 mg/kg i.p. daily for 10 days) was “inhibit expression”.
In the case of `N#C/C(=C\c1ccc(O)c(O)c1)C(=O)NCc1ccccc1` [tyrphostin B42], the “Inhibition of lymphocyte adhesion to inflamed vessels” value [1] is given as “effective inhibitor” and the “Inhibition of IL-12 induced tyrosine phosphorylation and activation of JAK-2 kinase” value (JAK-2 kinase) is given as “inhibit”.
For `O=C1Nc2ccccc2C1=Cc1c[nH]c2ccccc12` (racemic) [Compound 57, 3-(1H-indol-3-ylmethylene)-1,3-dihydro-indol-2-one], the “Inhibition of EAE compared with the suspension vehicle group (in words)” value [2] was “clear and significant inhibition”, the “AUC (mean) of the disease score” value [2, 5] was 4.70 and the “inhibition (%)” value [2, 5] was 84%. The “Inhibition (%) of EAE (area-under-curve of the disease score)” value (from here on “Inhibition (%) of EAE”) [2, 6] was 32%, the “Level of antigen-specific IL-17 production of spleen cells” value (IL-17; [7]) was “inhibit expression” and the “Level of antigen-specific IL-17 production of spleen cells” value (IL-17; listed as compound 57) was “clearly reduced”. The “Level of antigen-specific IL-6 production of spleen cells” value (IL-6; [7]) was “inhibit expression”, the “Level of antigen-specific IL-6 production of spleen cells” value (IL-6; listed as compound 57) was “clearly reduced” and the “Level of antigen-specific IFN-γ production of spleen cells” value (IFN-γ; [7]) was “inhibit expression”. For the same compound, the “Level of antigen-specific IFN-γ production of spleen cells” value (IFN-γ; listed as compound 57) was “clearly reduced”, the “Level of antigen-specific IL-2 production of spleen cells” value (IL-2; 50 mg/kg i.p. daily for 10 days, listed as 3-(1H-indol-3-ylmethylene)-1,3-dihydro-indol-2-one) was “inhibit expression” and the “Level of antigen-specific IL-2 production of spleen cells” value (IL-2; 50 mg/kg i.p. daily for 10 days, listed as compound 57) was “clearly reduced”.
For `Cc1cc(C)c(C=C2C(=O)Nc3ccccc32)[nH]1` [Compound 226, 3-(3,5-dimethyl-1H-pyrrol-2-ylmethylene)-1,3-dihydro-indol-2-one], the “AUC (mean) of the disease score” value [2, 8] was 1.8, the “inhibition (%)” value [2, 8] was 90% and the “AUC (mean) of the disease score” value [2, 9] was 21.2. The “inhibition (%)” value [2, 9] was 17%, the “AUC (mean) of the disease score” value [2, 10] was 19.6 and the “inhibition (%)” value [2, 10] was 23%. The “AUC (mean) of the disease score” value [2, 11] was 4.6, the “inhibition (%)” value [2, 11] was 82% and the “AUC (mean) of the disease score” value [2, 12] was 0.6. For the same compound, the “inhibition (%)” value [2, 12] was 98%, the “AUC (mean) of the disease score” value [2, 13] was 11.9 and the “inhibition (%)” value [2, 13] was 70%. For the same compound, the “AUC (mean) of the disease score” value [2, 14] was 6.6, the “inhibition (%)” value [2, 14] was 83% and the “AUC (mean) of the disease score” value [2, 15] was 21.9. For the same compound, the “inhibition (%)” value [2, 15] was 65%, the “Inhibition of EAE compared with the suspension vehicle group (in words)” value [2] was “significantly inhibit” and the “Effect on development of EAE in prolonged experiments (in words)” value ([2]; experiments 3 and 4, prolonged with one and two weeks) was “delays development of EAE rather than prevents the disease”. The “Genes on the Atlas MicroArray differentially expressed, treated vs control mice” value ([3]; day 7, daily dosing from day 0) was “Approximately 1.5%”, the “Expression of genes encoding adhesion molecules (lymphocyte antigens 6 locus D, 6 locus E, 84)” value ([3]; day 7, treated vs control mice) was “upregulated” and the “Expression of genes encoding interleukin 1 receptor, interleukin 10 receptor alpha, TNF receptor and TNF receptor-associated factor 1” value ([3]; day 7, treated vs control mice) was “downregulated”. The “Level of antigen-specific IL-17 production of spleen cells” value (IL-17; listed as compound 226) was “clearly reduced”, the “Level of antigen-specific IL-6 production of spleen cells” value (IL-6; listed as compound 226) was “clearly reduced” and the “Effect on disease development (in words)” value ([4]; MOG35-55, 50 mg/kg i.p.) was “significant effect on disease development”. The “AUC (mean) of the disease score” value [4, 16] was 2.65, the “inhibition (%)” value [4, 16] was 83% and the “Level of antigen-specific IFN-γ production of spleen cells” value (IFN-γ; listed as compound 226) was “clearly reduced”. The “IL-2 production of restimulated spleen cells after in vivo dosing” value (IL-2; 50 mg/kg i.p. daily for 10 days, spleen cells day 10, PLP139-153, 3 days culture) was “markedly inhibited”, the “IL-2 production of cells from suspension vehicle treated mice on in vitro incubation with compound” value (IL-2; 10^−7 M in vitro for 3 days) was “did not inhibit” and the “Level of antigen-specific IL-2 production of spleen cells” value (IL-2; 50 mg/kg i.p. daily for 10 days, listed as compound 226) was “clearly reduced”.
With `C[C@@H]1C[C@H]2[C@@H]3CCC4=CC(=O)C=C[C@]4(C)[C@@]3(F)[C@@H](O)C[C@]2(C)[C@@]1(O)C(=O)CO` [Dexamethasone, dexamethasone, reference compound] the “AUC (mean) of the disease score” value [2, 17] was 4.3, the “inhibition (%)” value [2, 17] was 75% and the “AUC (mean) of the disease score” value [2, 18] was 11.8. For the same compound, the “inhibition (%)” value [2, 18] was 54%, the “AUC (mean) of the disease score” value [2, 19] was 0.8 and the “inhibition (%)” value [2, 19] was 98%. The “AUC (mean) of the disease score” value [2, 20] was 13.15, the “inhibition (%)” value [2, 20] was 54% and the “AUC (mean) of the disease score” value [2, 21] was 8.85. The “inhibition (%)” value [2, 21] was 79%, the “AUC (mean) of the disease score” value [4, 22] was 0.00 and the “inhibition (%)” value [4, 22] was 100%.
In the case of `CCCn1cc(/C=C2\C(=O)Nc3ccccc32)c2ccccc21` [Compound 31, 3-(1-propyl-1H-indol-3-ylmethylene)-1,3-dihydro-indol-2-one], the “Inhibition (%) of EAE” value [2, 23] is reported as 60%.
For `Cc1[nH]c(/C=C2\C(=O)Nc3ccccc32)c(C)c1Br` [Compound 22, 3-(4-bromo-3,5-dimethyl-1H-pyrrol-2-ylmethylene)-1,3-dihydro-indol-2-one], the “Inhibition (%) of EAE” value [2, 23] was 78%.
In the case of `COc1ccc(CN(C)C)cc1/C=C1/C(=O)Nc2ccccc21` [Compound 32, 3-(5-dimethylaminomethyl-2-methoxy-benzylidene)-1,3-dihydro-indol-2-one], the “Inhibition (%) of EAE” value [2, 6] is reported as 40%.
In the case of `Cc1cc(C(=O)NCCO)[nH]c1/C=C1\C(=O)Nc2ccccc21` [Compound 02, 4-methyl-5-(2-oxo-1,2-dihydro-indol-3-ylidenemethyl)-1H-pyrrole-2-carboxylic acid (2-hydroxy-ethyl)-amide], the “Inhibition (%) of EAE” value [2, 23] is reported as 41%.
For `COc1ccc(OC)c(/C=C2/C(=O)Nc3cc(Br)ccc32)c1` [Compound 171, 6-bromo-3-(2,5-dimethoxy-benzylidene)-1,3-dihydro-indol-2-one], the “Inhibition (%) of EAE” value [2, 23] was 40%.
